Laboratory results taken from ChEMBL document CHEMBL1201862, “PubChem BioAssay data set” (2004).
Blank lines part the entries; values can stand above or below the compound they belong to. Calls of active or inactive are those of the source. Cut-off read from the data, not from the text of the source, for most assays here: actives have a measured IC50 and inactives only a lower limit.

How the values were obtained:
[1] = molecular target: Nucleotide-binding oligomerization domain-containing protein 1 (Homo sapiens, UniProt Q9Y239); assay: NOD1 signaling inhibitors, SAR follow-up, revised (AID 2333); assay type: functional
Nucleotide-binding oligomerization domain-containing protein 1, sequence (Q9Y239 whole entry, the tested form may be a part): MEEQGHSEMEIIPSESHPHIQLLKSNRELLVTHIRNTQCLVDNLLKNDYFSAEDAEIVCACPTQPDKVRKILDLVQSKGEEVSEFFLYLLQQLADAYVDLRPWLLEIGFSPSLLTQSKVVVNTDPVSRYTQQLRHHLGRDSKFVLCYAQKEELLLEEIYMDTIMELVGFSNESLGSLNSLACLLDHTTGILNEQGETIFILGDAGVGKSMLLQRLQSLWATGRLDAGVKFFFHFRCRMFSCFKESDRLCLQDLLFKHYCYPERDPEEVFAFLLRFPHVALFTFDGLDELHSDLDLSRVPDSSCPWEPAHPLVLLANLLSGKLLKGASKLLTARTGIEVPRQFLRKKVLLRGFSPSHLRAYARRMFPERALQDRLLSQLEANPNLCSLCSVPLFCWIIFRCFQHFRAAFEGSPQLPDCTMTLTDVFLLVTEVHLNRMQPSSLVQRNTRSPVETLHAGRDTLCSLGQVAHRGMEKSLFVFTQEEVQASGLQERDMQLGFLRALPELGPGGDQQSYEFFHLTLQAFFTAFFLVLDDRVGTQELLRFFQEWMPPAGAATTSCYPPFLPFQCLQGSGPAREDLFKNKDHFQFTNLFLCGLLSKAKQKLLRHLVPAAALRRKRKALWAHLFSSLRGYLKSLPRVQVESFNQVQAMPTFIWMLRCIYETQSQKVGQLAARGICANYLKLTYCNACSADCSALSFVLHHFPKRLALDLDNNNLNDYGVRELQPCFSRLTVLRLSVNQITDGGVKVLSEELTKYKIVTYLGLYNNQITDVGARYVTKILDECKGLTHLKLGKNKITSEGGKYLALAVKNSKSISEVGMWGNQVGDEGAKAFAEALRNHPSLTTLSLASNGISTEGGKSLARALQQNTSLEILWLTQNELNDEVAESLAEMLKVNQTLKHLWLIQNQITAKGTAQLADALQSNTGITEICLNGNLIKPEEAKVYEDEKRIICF

[2] = molecular target: Tumor necrosis factor (Homo sapiens, UniProt P01375); assay: TNFa-triggered NF-kB activation inhibitors, SAR follow-up, cell-based, revised (AID 2337); assay type: functional
Tumor necrosis factor, sequence (P01375 whole entry): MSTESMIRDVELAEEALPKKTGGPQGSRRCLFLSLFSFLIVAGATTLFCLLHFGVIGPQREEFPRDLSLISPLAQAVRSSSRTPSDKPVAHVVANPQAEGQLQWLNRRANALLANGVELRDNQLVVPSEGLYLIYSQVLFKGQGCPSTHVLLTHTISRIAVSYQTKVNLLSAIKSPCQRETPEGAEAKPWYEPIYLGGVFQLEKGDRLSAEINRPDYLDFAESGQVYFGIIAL

[3] = system: HEK293; assay: cells; assay type: functional, cell-based; details: Homo sapiens
[4] = growth suppression of PTEN-null colon cells, dose response, cell-based, HCT116 PTEN knockout (AID 1047); assay type: functional;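 note: HCT116 colon tumor cells with PTEN knocked out; cells exposed to compound for 60 hours before readout; potency for loss of cell viability measured by luminescence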
[5] = molecular target: Nucleotide-binding oligomerization domain-containing protein 2 (Homo sapiens, UniProt Q9HC29); assay: PubChem AID 2334; assay type: functional
Nucleotide-binding oligomerization domain-containing protein 2, sequence (Q9HC29 whole entry, the tested form may be a part): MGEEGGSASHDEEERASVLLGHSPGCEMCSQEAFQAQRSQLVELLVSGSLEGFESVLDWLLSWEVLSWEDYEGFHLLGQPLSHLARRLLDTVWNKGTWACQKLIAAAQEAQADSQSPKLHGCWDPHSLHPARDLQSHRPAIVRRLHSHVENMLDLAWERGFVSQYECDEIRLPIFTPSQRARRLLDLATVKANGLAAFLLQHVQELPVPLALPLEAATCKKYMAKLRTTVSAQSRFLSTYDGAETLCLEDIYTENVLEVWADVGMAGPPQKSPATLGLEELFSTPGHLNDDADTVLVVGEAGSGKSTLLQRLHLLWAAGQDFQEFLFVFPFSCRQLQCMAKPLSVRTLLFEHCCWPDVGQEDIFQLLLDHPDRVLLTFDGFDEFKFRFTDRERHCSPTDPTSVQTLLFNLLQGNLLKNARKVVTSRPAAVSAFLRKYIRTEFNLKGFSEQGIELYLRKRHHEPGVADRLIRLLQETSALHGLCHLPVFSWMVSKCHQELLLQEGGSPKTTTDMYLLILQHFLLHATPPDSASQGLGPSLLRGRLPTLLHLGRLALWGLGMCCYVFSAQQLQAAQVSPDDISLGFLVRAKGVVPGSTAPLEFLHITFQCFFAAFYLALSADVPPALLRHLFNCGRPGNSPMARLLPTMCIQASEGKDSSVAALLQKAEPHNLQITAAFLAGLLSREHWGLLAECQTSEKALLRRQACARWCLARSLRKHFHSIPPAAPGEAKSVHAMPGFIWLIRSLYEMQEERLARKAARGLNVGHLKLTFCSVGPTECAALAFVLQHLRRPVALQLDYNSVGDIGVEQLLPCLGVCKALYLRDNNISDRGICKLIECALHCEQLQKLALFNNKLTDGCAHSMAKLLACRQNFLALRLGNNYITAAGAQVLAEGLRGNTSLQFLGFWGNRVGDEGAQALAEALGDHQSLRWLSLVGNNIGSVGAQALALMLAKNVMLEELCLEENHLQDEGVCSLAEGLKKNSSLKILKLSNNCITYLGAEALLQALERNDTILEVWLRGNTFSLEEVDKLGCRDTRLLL

[6] = system: HEK293; assay: NOD1 signaling inhibitors, primary screen, cell-based, luminescence, uHTS (AID 1578); assay type: functional; details: Homo sapiens
[7] = system: HEK293; assay: cells; assay type: functional, cell-based; details: Homo sapiens; remark: listed apart in the source
[8] = system: HEK293; assay: NOD2 signaling inhibitors in MDP-stimulated cells, cell-based, uHTS, luminescence (AID 2001); assay type: functional; details: Homo sapiens
[9] = growth suppression of beta-catenin-knockout colon cells, dose response, cell-based, HCT116, human colon tumor (AID 1045); assay type: functional;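 note: HCT116 colon tumor cells with beta catenin knocked out; cells exposed to compound for 60 hours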
[10] = system: HEK293; assay: cells; details: Homo sapiens
[11] = molecular target: G-protein coupled receptor 55 (Homo sapiens, UniProt Q9Y2T6); assay: GPR55 antagonists, SAR follow-up, counter-screen for GPR35 antagonist project, imaging, image-based (AID 2397); assay type: functional
G-protein coupled receptor 55, sequence (Q9Y2T6 whole entry): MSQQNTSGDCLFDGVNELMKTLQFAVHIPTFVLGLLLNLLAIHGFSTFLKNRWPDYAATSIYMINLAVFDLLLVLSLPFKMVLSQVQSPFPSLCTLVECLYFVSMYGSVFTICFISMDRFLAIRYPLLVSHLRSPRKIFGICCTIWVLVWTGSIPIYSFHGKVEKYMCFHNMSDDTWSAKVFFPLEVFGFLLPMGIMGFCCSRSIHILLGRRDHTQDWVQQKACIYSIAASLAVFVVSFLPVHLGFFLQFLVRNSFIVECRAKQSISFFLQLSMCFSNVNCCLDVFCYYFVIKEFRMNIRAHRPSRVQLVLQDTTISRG

[12] = molecular target: T1, Tyrosine-protein phosphatase non-receptor type 7 (Homo sapiens, UniProt P35236); assay type: functional
T1 sequence (P35236 whole entry): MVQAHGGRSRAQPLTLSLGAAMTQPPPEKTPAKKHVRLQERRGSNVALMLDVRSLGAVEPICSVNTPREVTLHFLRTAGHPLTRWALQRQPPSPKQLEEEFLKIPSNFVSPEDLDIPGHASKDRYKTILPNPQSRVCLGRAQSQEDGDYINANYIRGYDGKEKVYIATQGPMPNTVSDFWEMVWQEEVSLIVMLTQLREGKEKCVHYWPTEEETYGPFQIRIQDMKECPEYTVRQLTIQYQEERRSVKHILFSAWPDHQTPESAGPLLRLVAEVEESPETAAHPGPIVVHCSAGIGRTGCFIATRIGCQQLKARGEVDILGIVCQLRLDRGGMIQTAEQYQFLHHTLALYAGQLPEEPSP

[13] = molecular target: T2, Tyrosine-protein phosphatase non-receptor type 22 (Homo sapiens, UniProt Q9Y2R2); assay type: functional
T2 sequence (Q9Y2R2 whole entry): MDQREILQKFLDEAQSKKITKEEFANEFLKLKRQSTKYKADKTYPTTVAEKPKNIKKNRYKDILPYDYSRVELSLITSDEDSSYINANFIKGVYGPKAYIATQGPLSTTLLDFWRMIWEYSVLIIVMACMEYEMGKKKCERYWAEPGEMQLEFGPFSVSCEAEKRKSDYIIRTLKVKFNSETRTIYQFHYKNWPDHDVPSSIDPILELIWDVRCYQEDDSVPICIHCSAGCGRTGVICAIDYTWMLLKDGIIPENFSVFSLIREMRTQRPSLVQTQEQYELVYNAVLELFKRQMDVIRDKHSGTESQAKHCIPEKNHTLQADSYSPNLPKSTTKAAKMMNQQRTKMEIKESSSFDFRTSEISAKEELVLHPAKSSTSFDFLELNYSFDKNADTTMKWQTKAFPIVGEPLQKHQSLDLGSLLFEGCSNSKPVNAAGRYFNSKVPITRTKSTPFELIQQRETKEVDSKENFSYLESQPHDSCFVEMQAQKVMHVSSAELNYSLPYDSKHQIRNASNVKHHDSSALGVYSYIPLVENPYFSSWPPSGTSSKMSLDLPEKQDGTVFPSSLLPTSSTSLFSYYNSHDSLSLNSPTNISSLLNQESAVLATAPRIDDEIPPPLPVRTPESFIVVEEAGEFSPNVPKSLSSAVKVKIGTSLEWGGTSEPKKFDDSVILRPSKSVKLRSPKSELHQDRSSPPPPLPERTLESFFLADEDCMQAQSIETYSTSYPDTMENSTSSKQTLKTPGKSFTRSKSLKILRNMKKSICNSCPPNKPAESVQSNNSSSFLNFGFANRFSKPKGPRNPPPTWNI

[14] = molecular target: T2, Tyrosine-protein phosphatase non-receptor type 22; assay type: functional; remark: listed apart in the source
[15] = molecular target: Lysine-specific demethylase 4C (Homo sapiens, UniProt Q9H3R0); assay: GASC-1 (JMJD2C) histone demethylase inhibitors, dose response, biochemical, DELFIA europium, cherry-picked samples (AID 488835); assay type: functional
Lysine-specific demethylase 4C, sequence (Q9H3R0 whole entry): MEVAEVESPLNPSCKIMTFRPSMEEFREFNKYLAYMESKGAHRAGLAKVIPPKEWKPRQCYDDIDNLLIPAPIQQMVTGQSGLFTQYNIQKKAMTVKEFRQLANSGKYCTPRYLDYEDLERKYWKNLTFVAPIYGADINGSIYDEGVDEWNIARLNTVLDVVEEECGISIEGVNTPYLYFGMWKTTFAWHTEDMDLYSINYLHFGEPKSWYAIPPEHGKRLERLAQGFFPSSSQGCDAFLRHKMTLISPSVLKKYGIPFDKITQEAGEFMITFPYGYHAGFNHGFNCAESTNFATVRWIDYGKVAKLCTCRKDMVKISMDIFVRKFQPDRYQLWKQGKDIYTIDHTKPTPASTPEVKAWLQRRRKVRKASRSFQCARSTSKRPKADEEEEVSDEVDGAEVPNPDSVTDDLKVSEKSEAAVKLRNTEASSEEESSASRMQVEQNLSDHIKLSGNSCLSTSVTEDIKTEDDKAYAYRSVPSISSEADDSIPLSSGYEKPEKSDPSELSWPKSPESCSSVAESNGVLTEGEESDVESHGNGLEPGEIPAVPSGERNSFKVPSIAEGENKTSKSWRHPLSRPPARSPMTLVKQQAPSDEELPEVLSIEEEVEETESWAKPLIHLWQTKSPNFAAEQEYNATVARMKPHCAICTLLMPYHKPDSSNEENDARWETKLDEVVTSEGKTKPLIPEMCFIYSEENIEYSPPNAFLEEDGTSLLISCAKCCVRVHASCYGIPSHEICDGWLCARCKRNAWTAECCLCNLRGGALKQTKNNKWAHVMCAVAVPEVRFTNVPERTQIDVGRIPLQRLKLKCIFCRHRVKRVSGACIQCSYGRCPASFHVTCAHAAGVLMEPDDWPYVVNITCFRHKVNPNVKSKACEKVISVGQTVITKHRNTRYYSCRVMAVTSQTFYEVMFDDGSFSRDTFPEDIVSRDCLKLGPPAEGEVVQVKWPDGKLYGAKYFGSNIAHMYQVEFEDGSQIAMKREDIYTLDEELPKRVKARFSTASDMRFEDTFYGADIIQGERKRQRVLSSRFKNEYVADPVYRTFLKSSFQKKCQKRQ

Structure (SMILES): Cc1cccc(-n2nc3c4c(ccc3c2O)C(=O)c2ccccc2C4=O)c1
- IC50 [1]: 17.1 µM (active)
- IC50 [2]: 16.3 µM (active)
- IC50 [3]: > 20 µM (inactive)
- EC50 [4]: 114 µM (active)
- IC50 [5]: 17.8 µM (active)
- EC50 [6]: 8.5 µM (active)
- IC50 [7]: > 20 µM (inactive)
- IC50 [8]: > 20 µM (inactive)
- EC50 [9]: 30 µM (active)
- IC50 [10]: > 20 µM (inactive)

- IC50 [11]: > 32 µM (inactive)
Structure (SMILES): Cc1ccccc1OCCC(=O)NCCc1ccc(S(N)(=O)=O)cc1

- IC50 [12]: > 79.4 µM (inactive)
- IC50 [13]: > 79.4 µM (inactive)
- IC50 [14]: > 79.4 µM (inactive)
Structure (SMILES): Cc1ccccc1Cn1cc(NC(=O)c2nn(C)cc2Cl)cn1

- AC50 [15]: 20.6 µM (active)
Structure (SMILES): CC(C)CCN(C(=O)C1=COCCO1)c1c(N)n(Cc2ccccc2)c(=O)[nH]c1=O
